Measurements from article PMC8055447 (Journal of medicinal chemistry, 2019).

Tests used:
[1] = test system: EV-D68 viral capsid protein VP1 expression; assay: Immunofluorescence imaging of viral capsid protein VP1 in infected RD cells; assay type: cell-based; settings: 9 hpi; for VP1 protein expression (immunofluorescence imaging): 1 μM, US/KY/14-18953, MOI = 1
sodium channels = settings: from 2 μM to 50 μM, rat DRG neurons, overnight incubation, veratridine 30 μM
[2] = test system: EV-D68 viral capsid protein VP1 expression; assay: Western blot of viral capsid protein VP1 in infected RD cells; assay type: cell-based; settings: 9 hpi, US/KY/14-18953, MOI = 1
[3] = test system: EV-D68 US/KY/14-18953 virus; assay: Viral CPE assay, EV-D68 US/KY/14-18953 in RD cells; assay type: cell-based, enterovirus D68 (EV-D68); settings: EV-D68 US/KY/14-18953, RD cells

CN(C)CCNC(=O)c1cc(-c2ccccc2)nc2ccccc12 [Compound 10a, N-[2-(dimethylamino)ethyl]-2-phenylquinoline-4-carboxamide]
VP1 protein expression (immunofluorescence imaging) [1]: completely blocked | inhibition of sodium current conductance (sodium channels): minimal to no effect | VP1 expression (western blot) ([2]; 1 μM): completely blocked

CN(C)CCNC(=O)c1cc(-c2cccs2)nc2ccccc12 [Compound 12a, N-[2-(dimethylamino)ethyl]-2-(thiophen-2-yl)quinoline-4-carboxamide]
VP1 protein expression (immunofluorescence imaging) [1]: completely blocked | SI (selectivity index, CC50/EC50) [3]: > 600 | VP1 expression (western blot) ([2]; 1 μM): completely blocked

O=C(NCCN1CCCC1)c1cc(-c2cccs2)nc2ccccc12 [Compound 12c, N-[2-(pyrrolidin-1-yl)ethyl]-2-(thiophen-2-yl)quinoline-4-carboxamide]
VP1 protein expression (immunofluorescence imaging) [1]: completely blocked | SI (selectivity index, CC50/EC50) [3]: > 600 | VP1 expression (western blot) ([2]; 1 μM): completely blocked

CCCCOc1cc(C(=O)NCCN(CC)CC)c2ccccc2n1 [Dibucaine, dibucaine, reference compound]
fluorescent signal of VP1 (immunofluorescence imaging) ([1]; 3 μM, US/KY/14-18953, MOI = 1, vs DMSO control): significantly reduced | VP1 expression (western blot) ([2]; 3 μM): nearly completely inhibited
